Target: T1, human PAD4 (Homo sapiens, UniProt Q9UM07)
T1 construct: human PAD4 (NM_012387), A2P663, was PCR amplified; His-SUMO (N, cleaved yes); made in house; host or cells: E. coli BL21(DE3)
Assay: In vitro PAD4 BAEE biochemical assay
Conditions: human PAD4, BAEE substrate; 5 nM PAD4, 2 mM calcium chloride, 3 mM BAEE; geometric mean of multiple experiments
Procedure, shortened: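 Tag-free recombinant hPAD4 (5 nM), 2 mM CaCl2, 3 mM BAEE, 50 mM MOPS pH 7.6, 2 mM DTT; 30 min compound preincubation, 2 h reaction, all 25 °C. EDTA quench; ammonia read via o-phthalaldehyde amine coupling, 1 h.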

T1 sequence (Q9UM07 2-663): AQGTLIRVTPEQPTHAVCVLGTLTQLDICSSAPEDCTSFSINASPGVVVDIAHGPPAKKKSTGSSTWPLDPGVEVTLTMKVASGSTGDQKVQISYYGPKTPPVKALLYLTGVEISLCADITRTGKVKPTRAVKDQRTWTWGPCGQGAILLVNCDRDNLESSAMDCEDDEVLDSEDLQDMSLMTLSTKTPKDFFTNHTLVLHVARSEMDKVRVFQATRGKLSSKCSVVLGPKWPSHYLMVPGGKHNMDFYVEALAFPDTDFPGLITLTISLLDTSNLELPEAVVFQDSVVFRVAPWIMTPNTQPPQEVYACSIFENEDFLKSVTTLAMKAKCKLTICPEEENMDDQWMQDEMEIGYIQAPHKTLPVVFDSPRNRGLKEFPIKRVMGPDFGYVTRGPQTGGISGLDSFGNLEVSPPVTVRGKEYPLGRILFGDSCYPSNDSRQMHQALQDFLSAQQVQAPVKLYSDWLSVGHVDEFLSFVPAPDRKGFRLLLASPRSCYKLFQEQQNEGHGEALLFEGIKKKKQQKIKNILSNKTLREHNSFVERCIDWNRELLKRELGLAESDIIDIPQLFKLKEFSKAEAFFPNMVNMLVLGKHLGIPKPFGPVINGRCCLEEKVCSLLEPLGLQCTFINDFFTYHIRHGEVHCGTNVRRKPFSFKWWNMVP

SMILES | IC50 [nM]
CS(=O)(=O)N(c1ccc2cc(-c3nc4cc(C(=O)N5[C@H]6CC[C@@H]5[C@H](N)C6)ccn4c3C3CC3)n(CC3CC3)c2n1)C(F)F [Example 386, ~{N}-[2-[7-[(1~{R},2~{R}, 4~{S})-2-amino-7-azabicyclo[2.2.1]heptane-7-carbonyl]-3-cyclopropylimidazo [1,2-a]pyridin-2-yl]-1-(cyclopropylmethyl)pyrrolo [2,3-b]pyridin-6-yl]-~{N}-(difluoromethyl) methanesulfonamide] | 126
COc1cc(C(=O)N2CC[C@@H](NC(C)=O)[C@@H](N)C2)cc2nc(-c3cc4ccc(N(C(F)F)S(C)(=O)=O)nc4n3CC3CC3)c(C)n12 [Example 360, ~{N}-[(3~{S},4~{R})-3-amino-1-[2-[1-(cyclopropylmethyl)-6-[difluoromethyl (methylsulfonyl)amino]pyrrolo[2,3-b]pyridin-2-yl]-5-methoxy-3-methylimidazo[1,2-a]pyridine-7-carbonyl]piperidin-4-yl]acetamide] | 725
COc1cc(C(=O)N2CCC[C@@H](N)C2)cc2nc(-c3cc4ccc(O[C@H](C)C(=O)N(C)C)nc4n3CC3CC3)c(C)n12 [Example 619, (2~{R})-2-[2-[7-[(3~{R})-3-aminopiperidine-1-carbonyl]-5-methoxy-3-methylimidazo [1,2-a]pyridin-2-yl]-1-(cyclopropylmethyl)pyrrolo [2,3-b]pyridin-6-yl]oxy-~{N},~{N}-dimethylpropanamide] | 686
COc1cc(C(=O)N2CC[C@@H](O)[C@@H](N)C2)cc2nc(-c3cc4ccc(N(C(F)F)S(C)(=O)=O)nc4n3CC3CC3)c(C)n12 [Example 348, ~{N}-[2-[7-[(3~{S}, 4~{R})-3-amino-4-hydroxypiperidine-1-carbonyl]-5-methoxy-3-methylimidazo [1,2-a]pyridin-2-yl]-1-(cyclopropylmethyl)pyrrolo[2,3-b]pyridin-6-yl]-~{N}-(difluoromethyl) methanesulfonamide] | 144
COc1cc(C(=O)N2CCC[C@@H](N)C2)cc2nc(-c3cc4ccc(N(C(F)F)S(C)(=O)=O)nc4n3CC3CC3)c(C)n12 [Example 388, ~{N}-[2-[7-[(3~{R})-3-aminopiperidine-1-carbonyl]-5-methoxy-3-methylimidazo [1,2-a]pyridin-2-yl]-1-(cyclopropylmethyl)pyrrolo [2,3-b]pyridin-6-yl]-~{N}-(difluoromethyl) methanesulfonamide] | 95.3
COc1cc(C(=O)N2C[C@@H]3CCC[C@H]2[C@H]3N)cc2nc(-c3cc4ccc(N(C(F)F)S(C)(=O)=O)nc4n3CC3CC3)c(C)n12 [Example 329, N-[2-[7-[(1S,5S,8S)-8-amino-6-azabicyclo[3.2.1]octane-6-carbonyl]-5-methoxy-3-methyl-imidazo[1,2-a]pyridin-2-yl]-1-(cyclopropylmethyl)pyrrolo [2,3-b]pyridin-6-yl]-N-(difluoromethyl) methanesulfonamide] | 5660
COc1cc(C(=O)N2C[C@H]3CNCC[C@H]32)cc2nc(-c3cc4ccc(N(C(F)F)S(C)(=O)=O)nc4n3CC3CC3)c(C)n12 [Example 284, ~{N}-[1-(cyclopropylmethyl)-2-[7-[(1~{R},6~{R})-3,7-diazabicyclo[4.2.0]octane-7-carbonyl]-5-methoxy-3-methylimidazo[1,2-a]pyridin-2-yl]pyrrolo[2,3-b]pyridin-6-yl]-~{N}-(difluoromethyl) methanesulfonamide] | 13400
COc1cc(C(=O)N2CC[C@@H]3C[C@]3(N)C2)cc2nc(-c3cc4ccc(N(C(F)F)S(C)(=O)=O)nc4n3CC3CC3)c(C)n12 [Example 363, ~{N}-[2-[7-[(1~{R},6~{R})-1-amino-3-azabicyclo[4.1.0]heptane-3-carbonyl]-5-methoxy-3-methylimidazo[1,2-a]pyridin-2-yl]-1-(cyclopropylmethyl)pyrrolo [2,3-b]pyridin-6-yl]-~{N}-(difluoromethyl) methanesulfonamide] | 1960
CCc1ccc2cc(-c3nc4cc(C(=O)N5[C@H]6CC[C@@H]5[C@H](N)C6)cc(OC)n4c3C)n(CCC(C)(C)C#N)c2n1 [Example 508, 4-[2-[7-[(1~{R},2~{R}, 4~{S})-2-amino-7-azabicyclo[2.2.1]heptane-7-carbonyl]-5-methoxy-3-methylimidazo[1,2-a]pyridin-2-yl]-6-ethylpyrrolo [2,3-b]pyridin-1-yl]-2,2-dimethylbutanenitrile] | 277
COc1cc(C(=O)N[C@H]2CNCC[C@@H]2C)cc2nc(-c3cc4ccc(N(C(F)F)S(C)(=O)=O)nc4n3CC3CC3)c(C)n12 [Example 288, 2-[1-(cyclopropylmethyl)-6-[difluoromethyl (methylsulfonyl)amino]pyrrolo[2,3-b]pyridin-2-yl]-5-methoxy-3-methyl-~{N}-[(3~{R},4~{S})-4-methylpiperidin-3-yl]imidazo[1,2-a]pyridine-7-carboxamide] | 8360
COc1cc(C(=O)N[C@@H]2CCCCNC2)cc2nc(-c3cc4ccc(N(C(F)F)S(C)(=O)=O)nc4n3CC3CC3)c(C)n12 [Example 316, ~{N}-[(3~{R})-azepan-3-yl]-2-[1-(cyclopropylmethyl)-6-[difluoromethyl (methylsulfonyl)amino]pyrrolo[2,3-b]pyridin-2-yl]-5-methoxy-3-methylimidazo[1,2-a]pyridine-7-carboxamide] | 306

More lines, now with the values ahead:

IC50 [nM] | SMILES
55.9 | COc1cc(C(=O)N2[C@H]3CC[C@@H]2[C@H](N)C3)cc2nc(-c3cc4ccc([C@@H](C)NC(=O)N5CC[C@H](F)C5)nc4n3CC3CC3)c(C)n12 [Example 248, (3~{S})-~{N}-[(1~{R})-1-[2-[7-[(1~{R},2~{R},4~{S})-2-amino-7-azabicyclo[2.2.1]heptane-7-carbonyl]-5-methoxy-3-methylimidazo [1,2-a]pyridin-2-yl]-1-(cyclopropylmethyl)pyrrolo [2,3-b]pyridin-6-yl]ethyl]-3-fluoropyrrolidine-1-carboxamide]
51.2 | COc1cc(C(=O)N2[C@H]3CC[C@@H]2[C@H](N)C3)cc2nc(-c3cc4ccc([C@@H](C)NC(=O)c5cnn(C(C)(C)C)c5)nc4n3CC3CC3)c(C)n12 [Example 82, ~{N}-[(1~{R})-1-[2-[7-[(1~{R},2~{R},4~{S})-2-amino-7-azabicyclo[2.2.1]heptane-7-carbonyl]-5-methoxy-3-methylimidazo [1,2-a]pyridin-2-yl]-1-(cyclopropylmethyl)pyrrolo [2,3-b]pyridin-6-yl]ethyl]-1-~{tert}-butylpyrazole-4-carboxamide]
47.2 | COc1cc(C(=O)N2[C@H]3CC[C@@H]2[C@H](N)C3)cc2nc(-c3cc4ccc([C@@H](C)NC(=O)c5cnccn5)nc4n3CC3CC3)c(C)n12 [Example 83]
151 | COc1nn(C)cc1C(=O)N[C@H](C)c1ccc2cc(-c3nc4cc(C(=O)N5[C@H]6CC[C@@H]5[C@H](N)C6)cc(OC)n4c3C)n(CC3CC3)c2n1 [Example 26, ~{N}-[(1~{R})-1-[2-[7-[(1~{R},2~{R},4~{S})-2-amino-7-azabicyclo [2.2.1]heptane-7-carbonyl]-5-methoxy-3-methylimidazo [1,2-a]pyridin-2-yl]-1-(cyclopropylmethyl)pyrrolo[2,3-b]pyridin-6-yl]ethyl]-3-methoxy-1-methylpyrazole-4-carboxamide]
30.7 | CCn1cc(C(=O)N[C@H](C)c2ccc3cc(-c4nc5cc(C(=O)N6[C@H]7CC[C@@H]6[C@H](N)C7)cc(OC)n5c4C)n(CC4CC4)c3n2)cn1 [Example 77, ~{N}-[(1~{R})-1-[2-[7-[(1~{R},2~{R},4~{S})-2-amino-7-azabicyclo[2.2.1]heptane-7-carbonyl]-5-methoxy-3-methylimidazo [1,2-a]pyridin-2-yl]-1-(cyclopropylmethyl)pyrrolo [2,3-b]pyridin-6-yl]ethyl]-1-ethylpyrazole-4-carboxamide]
56 | COc1cc(C(=O)N2[C@H]3CC[C@@H]2[C@H](N)C3)cc2nc(-c3cc4ccc([C@@H](C)NC(=O)C5(C)COC5)nc4n3CC3CC3)c(C)n12 [Example 166, ~{N}-[(1~{R})-1-[2-[7-[(1~{R},2~{R},4~{S})-2-amino-7-azabicyclo[2.2.1]heptane-7-carbonyl]-5-methoxy-3-methylimidazo [1,2-a]pyridin-2-yl]-1-(cyclopropylmethyl)pyrrolo [2,3-b]pyridin-6-yl]ethyl]-3-methyloxetane-3-carboxamide]
187 | COc1cc(C(=O)N2CCC[C@@H](N)C2)cc2nc(-c3cc4ccc([C@@H](C)NC(=O)c5ccccc5)nc4n3CC3CC3)c(C3CC3)n12 [Example 141, ~{N}-[(1~{R})-1-[2-[7-[(3~{R})-3-aminopiperidine-1-carbonyl]-3-cyclopropyl-5-methoxyimidazo [1,2-a]pyridin-2-yl]-1-(cyclopropylmethyl)pyrrolo [2,3-b]pyridin-6-yl]ethyl] benzamide]
170 | CCc1ccc2cc(-c3nc4cc(C(=O)N5[C@H]6CC[C@@H]5[C@H](N)C6)cc(OC)n4c3C)n(CCC3CC3)c2n1 [Example 505, [(1~{R},2~{R},4~{S})-2-amino-7-azabicyclo [2.2.1]heptan-7-yl]-[2-[1-(2-cyclopropylethyl)-6-ethylpyrrolo[2,3-b]pyridin-2-yl]-5-methoxy-3-methylimidazo[1,2-a]pyridin-7-yl]methanone]
227 | COc1cc(C(=O)N2[C@H]3CC[C@@H]2[C@H](N)C3)cc2nc(-c3cc4ccc(C(C)(C)N)nc4n3CC3CC3)c(C)n12 [Example 570, [(1~{R},2~{R},4~{S})-2-amino-7-azabicyclo [2.2.1]heptan-7-yl]-[2-[6-(2-aminopropan-2-yl)-1-(cyclopropylmethyl)pyrrolo [2,3-b]pyridin-2-yl]-5-methoxy-3-methylimidazo[1,2-a]pyridin-7-yl]methanone]

Source: patent US12240862B2, “Inhibitors of peptidylarginine deiminases” (Gilead Sciences, Inc., priority 2020, dated 2025)
